Columns and labels:
[1] = test system: GP2D (KRAS G12D); assay: Cell proliferation assay (CellTiter-Glo, 72 hours), GP2D; format: cell-based; conditions: GP2d, 72 h, 384-well, CellTiter-Glo 2.0
Method: (§1) Two thousand KRAS mutant cells per well were seeded in 384-well white plate and then treated with indicated compounds for 72 hours at 37° C. and 5% CO2. Cell proliferation was measured using CellTiter-Glo 2.0 luciferase-based ATP detection assay (Promega, Madison, WI) following the manufacturer's protocol. IC50 values were determined using Prism software (GraphPad Software, San Diego, CA).

[2] = test system: SW620 (KRAS G12V); assay: Cell proliferation assay (CellTiter-Glo, 72 hours), SW620; format: cell-based; conditions: Homo sapiens, SW-620, 72 h, 384-well, CellTiter-Glo 2.0
Method: as §1

[3] = test system: AGS (G12D); assay: Cell proliferation assay (CellTiter-Glo, 72 hours), AGS; format: cell-based; conditions: 72 h, 384-well, CellTiter-Glo 2.0
Method: as §1

[4] = biological target: KRAS G12D (Homo sapiens, UniProt P01116, G12D); assay: biochemical
[5] = biological target: KRAS G12V (Homo sapiens, UniProt P01116, G12V); assay: biochemical
KRAS G12V, sequence (P01116 1-188 isoform P01116-2 G12V): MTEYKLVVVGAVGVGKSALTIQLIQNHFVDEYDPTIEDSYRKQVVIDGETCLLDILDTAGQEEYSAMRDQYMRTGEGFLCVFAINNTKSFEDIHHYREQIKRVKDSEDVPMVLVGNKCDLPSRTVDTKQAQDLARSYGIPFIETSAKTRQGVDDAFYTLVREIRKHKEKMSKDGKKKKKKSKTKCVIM

KRAS G12D, sequence (P01116 1-188 isoform P01116-2 G12D): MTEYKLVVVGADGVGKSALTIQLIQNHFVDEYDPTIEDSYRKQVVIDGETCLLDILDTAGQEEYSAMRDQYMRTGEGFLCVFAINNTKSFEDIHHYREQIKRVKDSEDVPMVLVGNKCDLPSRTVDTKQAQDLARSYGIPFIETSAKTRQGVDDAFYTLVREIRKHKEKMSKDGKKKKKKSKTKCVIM

Row | SMILES | IC50 [1] [nM] | IC50 [2] [nM] | IC50 [3] [nM] | IC50 [4] [nM] | IC50 [5] [nM]
1 | CC[C@H]1COc2nc(-c3cc(O)cc4ccc(F)c(Cl)c34)c(F)c3nc(OC[C@@]45CCCN4C[C@H](F)C5)nc(c23)N1C [Example 111, 5-chloro-4-[(9S)-9-ethyl-4-fluoro-2-{[(2R,7aS)-2-fluorotetrahydro-1H-pyrrolizin-7a(5H)-yl]methoxy}-10-methyl-9,10-dihydro-8H-7-oxa-1,3,6,10-tetraazacyclohepta[1,2,3-de]naphthalen-5-yl]-6-fluoronaphthalen-2-ol] | 59.7 | 499 | 361 | 1.28 | 1.41
2 | C#Cc1c(F)ccc2cc(O)cc(-c3nc4c5c(nc(OC[C@@]67CCCN6C[C@H](F)C7)nc5c3F)N3C[C@H](C#N)CC[C@H]3CO4)c12 [Example 118, (5aS,8R)-2-(8-ethynyl-7-fluoro-3-hydroxynaphthalen-1-yl)-1-fluoro-11-(((2R,7aS)-2-fluorotetrahydro-1H-pyrrolizin-7a(5H)-yl)methoxy)-5,5a,6,7,8,9-hexahydro-4-oxa-3,9a,10,12-tetraazabenzo[4,5]cyclohepta[1,2,3-de]naphthalene-8-carbonitrile] | > 3000 | > 3000 | > 3000 | 52.5 | 58.9
3 | CCc1c(F)ccc2cc(O)cc(-c3nc4c5c(nc(OC[C@@]67CCCN6C[C@H](F)C7)nc5c3F)N3CCCC(O)C3CO4)c12 (stereo partly drawn) [Example 119, 5-(8-ethyl-7-fluoro-3-hydroxynaphthalen-1-yl)-4-fluoro-2-{[(2R,7aS)-2-fluorotetrahydro-1H-pyrrolizin-7a(5H)-yl]methoxy}-8,8a,9,10,11,12-hexahydro-7-oxa-1,3,6,12a-tetraazabenzo[4,5]cyclohepta[1,2,3-de]naphthalen-9-ol] | 103 | 307 | 258 | 2.48 | 2.16
4 | C#Cc1c(F)ccc2cc(O)cc(-c3nc4c5c(nc(OC[C@@]67CCCN6C[C@H](F)C7)nc5c3F)N3CCCCC3CC4)c12 (stereo partly drawn) [Example 121, 5-ethynyl-6-fluoro-4-(4-fluoro-2-{[(2R,7aS)-2-fluorotetrahydro-1H-pyrrolizin-7a(5H)-yl]methoxy}-8,8a,9,10,11,12-hexahydro-7H-1,3,6,12a-tetraazabenzo[4,5]cyclohepta[1,2,3-de]naphthalen-5-yl)naphthalen-2-ol] | 3.67 | 16.6 | 21.5 | 1.74 | 1.99
5 | C#Cc1c(F)ccc2cc(O)cc(-c3nc4c5c(nc(OC[C@@]67CCCN6C[C@H](F)C7)nc5c3F)NCCC4)c12 [Example 122, 5-ethynyl-6-fluoro-4-(4-fluoro-2-{[(2R,7aS)-2-fluorotetrahydro-1H-pyrrolizin-7a(5H)-yl]methoxy}-7,8,9,10-tetrahydro-1,3,6,10-tetraazacyclohepta[1,2,3-de]naphthalen-5-yl)naphthalen-2-ol] | 2410 | 4900 | 5490 | 14.8 | 16.9
6 | C#Cc1c(F)ccc2cc(O)cc(-c3nc4c5c(nc(OC[C@@]67CCCN6C[C@H](F)C7)nc5c3F)N[C@@H](C3CCCO3)CO4)c12 (stereo partly drawn) [Example 126, 5-ethynyl-6-fluoro-4-((9R)-4-fluoro-2-(((2R,7aS)-2-fluorotetrahydro-1H-pyrrolizin-7a(5H)-yl)methoxy)-9-(tetrahydrofuran-2-yl)-9,10-dihydro-8H-7-oxa-1,3,6,10-tetraazacyclohepta[de]naphthalen-5-yl)naphthalen-2-ol] | > 3000 | 109 | > 3000 | 111 | 30.2
